Legend:
AMPA receptor = AMPA receptor antagonism / positive modulation: AMPA induced current in Xenopus oocytes expressing rat whole brain poly(A)+ RNA (electrophysiology); type: cell-based; details: for IC50: oocytes expressing rat brain AMPA receptors; for AMPA positive potentiation, 200% @ μM: concentration at which AMPA current is potentiated 200%
Method: The novel substituted 2,3-benzodiazepin-4-ones were assessed by electrophysiological assays in Xenopus oocytes expressing rat whole brain poly(A)^+ RNA (see Keana et al, J. Med. Chem. 38. 4367-4379 (1995)) or in cultured rat cortical neurons (see Woodward et. al. Mol. Pharmacol. 47: 568-581 (1995)) for AMPA receptor activity. Compounds which are useful for treating or preventing the adverse consequences of stroke, hypoglycemia, neurodegenerative disorders, anxiety, epilepsy or psychosis, or which induce analgesia, will inhibit the currents across the membranes of the oocyte expressing AMPA receptors. However, if the compound potentiates currents across the oocyte membrane, then the compound is expected to be useful in enhancing cognition or treating schizophrenia or neurodegenerative diseases such as Parkinson's Disease.
The ability of AMPA receptor antagonists or positive modulators to inhibit or enhance AMPA induced current in oocyte expressing neuronal AMPA receptor was determined using procedures fully described in Keana et al, J. Med. Chem. 38: 4367-4379 (1995). […] The compounds of examples 22, 30 and 31 are positive modulators of AMPA receptor. They potentiate the AMPA current 200% at a concentration of 11, 10 and 11 μM, respectively.

mice = experiment: Maximal Electroshock-induced Seizure (MES) test; type: in vivo; details: for ED50: Mus musculus, mice, iv; for anticonvulsant activity in the MES experiment: in words
Method: Seizures are induced by application of current (50 mA, 60 pulses/sec, […], 1 sec duration, .c.) through saline-coated corneal electrodes using a Ugo Basile ECT device (Model 7801). […] A tonic seizure is defined as a hindlimb extension in excess of 90 degrees from the plane of the body. Results are treated in a quintal manner.

[1] = literature; cited from earlier work
rat = details: literature; cited from earlier work
[2] = literature; cited from earlier work; remark: listed apart in the source
AMPA receptors = details: literature; cited from earlier work
[3] = literature; cited from earlier work; remark: listed apart in the source
[4] = literature; cited from earlier work; remark: listed apart in the source

| IC50 (AMPA receptor) | Compound | AMPA positive potentiation, 200% @ μM (AMPA receptor) | other results |
| --- | --- | --- | --- |
| 3 µM | Nc1ccc(C2=NNC(=O)Cc3cc4c(cc32)OCO4)cc1 [Example 14, 1-(4-Aminophenyl)-7,8-methylenedioxy-3,5-dihydro-2,3-benzodiazepin-4(4H)-one] | – | ED50 (mice): 2.4 mg/kg; anticonvulsant activity in the MES experiment (mice): active as anticonvulsants |
| 4 µM | CC1C(=O)NN=C(c2ccc(N)cc2)c2cc3c(cc21)OCO3 (centres unmarked) [Example 45, 1-(4-Aminophenyl)-5-methyl-7,8-methylenedioxy-3,5-dihydro-2,3-benzodiazepin-4(4H)-one] | – | – |
| 4 µM | Nc1ccc(C2=NNC(=O)Cc3cc4c(cc32)OCO4)c(Cl)c1 [Example 62, 1-(4-Amino-2-chlorophenyl)-7,8-methylenedioxy-3,5-dihydro-2,3-benzodiazepin-4(4H)-one] | – | ED50 (mice): 3.2 mg/kg; anticonvulsant activity in the MES experiment (mice): active as anticonvulsants |
| 26 µM | CNC(=O)N1N=C(c2ccccc2)c2cc3c(cc2CC1=O)OCO3 [Example 15, 7,8-Methylenedioxy-3-methylaminocarbonyl-1-phenyl-3,5-dihydro-2,3-benzodiazepin-4(4H)-one] | – | – |
| – | CCC(CC)N1N=C(c2ccccc2)c2cc3c(cc2CC1=O)OCO3 [Example 22, 7,8-Methylenedioxy-3-(3-pentyl)-1-phenyl-3,5-dihydro-2,3-benzodiazepin-4(4H)-one] | 11 µM | – |
| 10 µM | CC1C(=O)NN=C(c2ccc3c(c2)OCO3)c2cc3c(cc21)OCO3 (centres unmarked) [Example 48, 5-Methyl-1-(3,4-methylenedioxyphenyl)-7,8-methylenedioxy-3,5-dihydro-2,3-benzodiazepin-4(4H)-one] | – | – |
| – | CCCC(C)N1N=C(c2ccccc2)c2cc3c(cc2CC1=O)OCO3 (centres unmarked) [Example 25, 7,8-Methylenedioxy-3-(2-pentyl)-1-phenyl-3,5-dihydro-2,3-benzodiazepin-4(4H)-one] | 160 µM | – |
| – | O=C1Cc2cc3c(cc2C(c2ccccc2)=NN1C1CCCCCC1)OCO3 [Example 30, 3-Cycloheptyl-7,8-methylenedioxy-1-phenyl-3,5-dihydro-2,3-benzodiazepin-4(4H)-one] | 10 µM | – |
| – | CC(C)N1N=C(c2ccccc2)c2cc3c(cc2CC1=O)OCO3 [Example 18, 3-Isopropyl-7,8-methylenedioxy-1-phenyl-3,5-dihydro-2,3-benzodiazepin-4(4H)-one] | 30 µM | – |
| – | O=C(c1ccc2c(c1)OCO2)N1CCCCC1 [BDP, 1-(1,3-benzodioxol-5-ylcarbonyl) piperidine] | – | memory enhancement [1]: enhance memory |
| 0.8 µM | Nc1ccc(C2=NNC(=O)Cc3cc4c(cc32)OCO4)cc1Cl [Example 63, 1-(4-Amino-3-chlorophenyl)-7,8-methylendioxy-3,5-dihydro-2,3-benzodiazepin-4(4H)-one] | – | – |
| – | CC1=NN=C(c2ccc(N)cc2)c2cc3c(cc2C1)OCO3.Cl [GYKI 52466, 1-(4-aminophenyl)-4-methyl-7,8-methylenedioxy-5H-2,3-benzodiazepine-hydrochloride] | – | neuroprotection in rat global ischemia (rat): effective neuroprotective agent; anticonvulsant activity [2]: effective anticonvulsant |
| – | CC(=O)N1N=C(c2ccc(N)cc2)c2cc3c(cc2C[C@H]1C)OCO3 [LY300164] | – | anticonvulsant activity [2]: anticonvulsant activity; AMPA receptor antagonism (AMPA receptors): noncompetitive antagonist of AMPA receptors |
| – | O=C1Cc2cc3c(cc2C(c2ccccc2)=NN1C1CCCCC1)OCO3 [Example 31, 3-Cyclohexyl-7,8-methylenedioxy-1-phenyl-3,5-dihydro-2,3-benzodiazepin-4(4H)-one] | 11 µM | – |
| – | CCCC(CC)N1N=C(c2ccccc2)c2cc3c(cc2CC1=O)OCO3 (centres unmarked) [Example 33, 3-(3-Hexyl)-7,8-methylenedioxy-1-phenyl-3,5-dihydro-2,3-benzodiazepin-4(4H)-one] | 24 µM | – |
| 1 µM | Cc1cc(C2=NNC(=O)Cc3cc4c(cc32)OCO4)ccc1N [Example 61, 1-(4-Amino-3-methylphenyl)-7,8-methylenedioxy-3,5-dihydro-2,3-benzodiazepin-4(4H)-one] | – | ED50 (mice): 2.7 mg/kg; anticonvulsant activity in the MES experiment (mice): active as anticonvulsants |
| – | NS(=O)(=O)c1cccc2c1c([N+](=O)[O-])cc1nc(O)c(O)nc12 [NBQX, 2,3-dihydroxy-6-nitro-7-sulfamoylbenzo[f]quinoxaline] | – | prevention of global and focal ischemic damage [3]: effective in preventing global and focal ischemic damage |
| 15 µM | Cc1ccc(C2=NNC(=O)Cc3cc4c(cc32)OCO4)cc1 [Example 9, 7,8-Methylenedioxy-1-(4-methylphenyl)-3,5-dihydro-2,3-benzodiazepin-4(4H)-one] | – | – |
| 20 µM | COc1cc(C2=NNC(=O)Cc3cc4c(cc32)OCO4)ccc1[N+](=O)[O-] [Example 56, 7,8-Methylenedioxy-1-(3-methoxy-4-nitrophenyl)-3,5-dihydro-2,3-benzodiazepin-4(4H)-one] | – | – |
| – | CCC(C)N1N=C(c2ccccc2)c2cc3c(cc2CC1=O)OCO3 (centres unmarked) [Example 21, 3-(2-Butyl)-7,8-methylenedioxy-1-phenyl-3,5-dihydro-2,3-benzodiazepin-4(4H)-one] | 12 µM | – |
| – | CC1Cc2cc3c(cc2C(c2ccc(N)cc2)=NN1)OCO3 (centres unmarked) | – | central nervous effect [4]: CNS stimulating activity |

Source: patent publication US5891871A, “Substituted 2,3-benzodiazepin-4-ones and the use thereof” (CoCensys, Inc., priority 1997, dated 1999)
